The source of these data is US20050277663A1, “3-Aryl-3-hydroxy-and 3-aryl-3-oxopropionic acid esters as fungicides” (priority 2004, published 2005).

Test [1] deals with Alternaria solani on tomato plants. Briefly: Alternaria greenhouse study on tomato plants. Particulars: for control of A. solani (in words): 75 ppm rate; for Average Lesion Size: 6 days after infection.
Method: Tomato plants were inoculated with a conidial suspension (8,000 conidia/ml) of A. solani and maintained in a dew chamber for 24 hours. The plants were subsequently moved to the greenhouse for disease development.
Test [2] has as its system Erysiphe graminis on barley plants. Briefly: Erysiphe greenhouse study on barley plants. Particulars: for Average Lesion Number: 5 days after infection.
In a further test the test system is Botrytis cinerea. Briefly: Microtiter plate fungicidal screening (agar, spore inoculation). The class given is cell-based. Conditions: fungal growth after 3-5 days at 20° C., C.V. class in parentheses, read-out: IC50 B. cinerea.
The test system of another test is Phytophthora infestans. Description: microbe, parasite or virus in culture. The class given is cell-based. Conditions: for IC50: Phytophthora infestans, read-out: IC50 P. infestans.
For the next test, the system named is Stagnospora nodorum. Description: Microtiter plate fungicidal screening (agar, spore inoculation). The class given is cell-based. Conditions: fungal growth after 3-5 days at 20° C., C.V. class in parentheses; for IC50: Parastagonospora nodorum, read-out: IC50 S. nodorum.
A further test concerns Septoria tritici. The description is as above. The class given is cell-based. Particulars: fungal growth after 3-5 days at 20° C., C.V. class in parentheses.
The next test has as its system U. maydis. The test is described as above. The class given is cell-based, Ustilago maydis. Particulars: Mycosarcoma maydis; fungal growth after 3-5 days at 20° C.; C.V. class in parentheses.

Regarding `CO/C=C(/C(=O)OC)c1ccccc1Oc1cc(Oc2ccccc2C#N)ncn1` [Azoxystrobin, azoxystrobin], the “control of A. solani (in words)” value in test [1] was “slightly less control”. Moreover, the “Average Lesion Size” value in test [1] (75 ppm) and in test [1] (300 ppm) was “A (A = 0-10)” in each case. Moreover, the “control of A. solani” value in test [1] (300 ppm rate) was around 100%.
`N#Cc1c(Cl)c(Cl)c(Cl)c(C#N)c1Cl` [Chlorothalonil, chlorothalonil]: the “control of E. graminis (in words)” value in test [2] (high rate) is recorded as “marginal level of control”. Moreover, the “Average Lesion Number” value in test [2] (inoculated data set, 1250 ppm) is reported as “B (B = 51-100)”; in test [2] (inoculated data set, 5000 ppm) it was “D (D = +150)”; in test [2] (uninoculated data set, 1250 ppm) it was “B (B = 11-20)”; in test [2] (uninoculated data set, 5000 ppm), “C (C = 21-30)”. For the same compound, the “Average Lesion Size” value in test [1] (1250 ppm) and in test [1] (5000 ppm) was “A (A = 0-10)” throughout.
As usually defined, the IC50 is the concentration that gives 50% inhibition. `O=C(OCc1cccc(C(F)(F)F)c1)C(CSc1nccs1)C(O)c1cccnc1` (stereo not drawn) [Compound 5, 3-(Trifluoromethyl)phenylmethyl β-hydroxy-α-(2-thiazolylthiomethyl)-3-pyridinepropanoate]: the IC50 in the test with Botrytis cinerea was above 25 µM; in the test with Phytophthora infestans, above 25 µM; with Stagnospora nodorum, below 5 µM; with U. maydis it was above 25 µM. Moreover, the “IC50 S. tritici” value with Septoria tritici was “A (d)”.
Regarding `O=C(OCc1cccc(C(F)(F)F)c1)[C@H](c1ccccc1)[C@@H](O)c1cccnc1` [Compound 15, 3-(Trifluoromethyl)phenylmethyl syn-β-hydroxy-α-phenyl-3-pyridinepropanoate], the IC50 in the test with Phytophthora infestans and in the test with U. maydis was above 25 µM throughout. Further, the “IC50 S. nodorum” value in the test with Stagnospora nodorum was “A (d)”. Moreover, the “IC50 S. tritici” value in the test with Septoria tritici is listed as “A (d)”.
`O=C(OCc1ccc(Cl)c(Cl)c1)C(CSc1nc2cccnc2s1)C(O)c1cccnc1` (stereo not drawn) [Compound 16, 3,4-Dichlorophenylmethyl β-hydroxy-α-{2-(thiazolo[5,4-b]pyridine)thiomethyl}-3-pyridinepropanoate]: the IC50 in the test on Phytophthora infestans and in the test with U. maydis was above 25 µM throughout. Besides, the “IC50 S. nodorum” value in the test with Stagnospora nodorum is “A (b)”. In the test with Septoria tritici, the “IC50 S. tritici” value was “A (c)”.
In the case of `O=C(OCc1cccc(C(F)(F)F)c1)C(Cc1ccco1)C(O)c1cccnc1` (stereo not drawn) [Compound 20, 3-(Trifluoromethyl)phenylmethyl β-hydroxy-α-2-furylmethyl-3-pyridinepropanoate], the IC50 with Botrytis cinerea is above 25 µM; in the test on Phytophthora infestans, above 25 µM; with Septoria tritici (Zymoseptoria tritici, read-out: IC50 S. tritici) it was below 5 µM; in the test on U. maydis it was above 25 µM. Besides, the “IC50 S. nodorum” value with Stagnospora nodorum is given as “A (b)”.
For `O=C(OCc1cccc(C(F)(F)F)c1)C(c1ccccc1Cl)C(O)c1cccnc1` (stereo not drawn) [Compound 21, 3-(Trifluoromethyl)phenylmethyl β-hydroxy-α-2-chlorophenyl-3-pyridinepropanoate], the IC50 with Botrytis cinerea, in the test on Phytophthora infestans and in the test with U. maydis was above 25 µM in each case. Moreover, the “IC50 S. nodorum” value with Stagnospora nodorum was “A (c)”. The “IC50 S. tritici” value with Septoria tritici is “A (c)”. Besides, in test [2] (both rates (300 and 75 ppm), both uninoculated and inoculated tests), the “activity against E. graminis (in words)” value is listed as “excellent activity”. In addition, the “Average Lesion Number” value is “A (A = 0-50)” in test [2] (inoculated data set, 75 ppm); “A (A = 0-50)” in test [2] (inoculated data set, 300 ppm); “A (A = 0-10)” in test [2] (uninoculated data set, 75 ppm); “A (A = 0-10)” in test [2] (uninoculated data set, 300 ppm). In addition, the “control of A. solani (in words)” value in test [1] was “no control”. For the same compound, the “Average Lesion Size” value in test [1] (75 ppm) is listed as “D (D = +30)”; in test [1] (300 ppm), “C (C = 21-30)”. Besides, in test [1] (high rate (300 ppm), activity was not significant), the “decrease in lesion counts” value is reported as “roughly 50%”.
Take `CC(C(=O)Oc1ccc(Cl)c(Cl)c1)C(O)c1cccnc1` (stereo not drawn) [Compound 29, 3,4-Dichlorophenyl β-hydroxy-α-methyl-3-pyridinepropanoate]: the figures for the IC50 in the test on Botrytis cinerea, in the test on Stagnospora nodorum and with U. maydis were above 25 µM, 16 to 25 µM and 16 to 25 µM, respectively. Besides, the “IC50 P. infestans” value with Phytophthora infestans (fungal growth after 3-5 days at 20° C., C.V. class in parentheses) is “D (d)”. The “IC50 S. tritici” value in the test on Septoria tritici is “A (b)”.
For the compound `CCCC1COC(Cn2cncn2)(c2ccc(Cl)cc2Cl)O1` (centres unmarked) [Propiconazole, propiconazole], the “control of E. graminis” value in test [2] (high (75 ppm) rate) was around 100%. For the same compound, the “Average Lesion Number” value in test [2] (inoculated data set, 4.7 ppm) is “A (A = 0-50)”; in test [2] (inoculated data set, 18.8 ppm) it was “A (A = 0-50)”; in test [2] (inoculated data set, 75 ppm), “A (A = 0-50)”; in test [2] (uninoculated data set, 5 ppm) it was “A (A = 0-10)”; in test [2] (uninoculated data set, 19 ppm) it was “A (A = 0-10)”; in test [2] (uninoculated data set, 75 ppm), “A (A = 0-10)”. Besides, in test [2] (lower rates (19 and 5 ppm)), the “control of E. graminis (in words)” value is on record as “excellent control”.
